Results as given in patent US9688699B2, “3-(pyrimidine-2-yl)imidazo[1,2-a]pyridines” (Bayer Pharma Aktiengesellschaft, priority 2014, dated 2017).
Where a name gives a salt, the structure may show the parent alone.

Assays:
[1] = biological target: T1, recombinant guanylate cyclase reporter cell line (Rattus norvegicus, UniProt P19686+P20595); assay: Effect on a recombinant guanylate cyclase reporter cell line (B-2); format: cell-based; conditions: MEC = minimum effective concentration, in some cases mean values for individual determinations
T1 construct: expressed in transfected cells
T1 sequence (P19686 1-690): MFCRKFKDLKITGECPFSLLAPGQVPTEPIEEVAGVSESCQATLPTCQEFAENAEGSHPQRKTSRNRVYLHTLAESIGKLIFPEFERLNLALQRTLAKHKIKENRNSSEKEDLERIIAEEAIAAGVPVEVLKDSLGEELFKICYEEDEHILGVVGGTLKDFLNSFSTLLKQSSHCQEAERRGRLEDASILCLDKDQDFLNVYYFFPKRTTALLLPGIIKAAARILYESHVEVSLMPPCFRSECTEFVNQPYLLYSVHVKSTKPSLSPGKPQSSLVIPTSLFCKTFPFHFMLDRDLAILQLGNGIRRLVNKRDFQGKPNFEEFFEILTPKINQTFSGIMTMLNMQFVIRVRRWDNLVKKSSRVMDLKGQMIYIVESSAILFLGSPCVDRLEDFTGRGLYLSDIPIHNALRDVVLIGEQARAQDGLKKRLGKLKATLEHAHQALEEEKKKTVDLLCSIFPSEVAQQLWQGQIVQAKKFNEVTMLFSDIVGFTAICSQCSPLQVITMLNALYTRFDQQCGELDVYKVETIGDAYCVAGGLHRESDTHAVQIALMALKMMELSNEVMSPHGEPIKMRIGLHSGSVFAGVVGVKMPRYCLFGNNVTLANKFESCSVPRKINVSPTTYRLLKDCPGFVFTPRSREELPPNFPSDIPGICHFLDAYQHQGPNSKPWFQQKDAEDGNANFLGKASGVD
T1 sequence (P20595 1-619): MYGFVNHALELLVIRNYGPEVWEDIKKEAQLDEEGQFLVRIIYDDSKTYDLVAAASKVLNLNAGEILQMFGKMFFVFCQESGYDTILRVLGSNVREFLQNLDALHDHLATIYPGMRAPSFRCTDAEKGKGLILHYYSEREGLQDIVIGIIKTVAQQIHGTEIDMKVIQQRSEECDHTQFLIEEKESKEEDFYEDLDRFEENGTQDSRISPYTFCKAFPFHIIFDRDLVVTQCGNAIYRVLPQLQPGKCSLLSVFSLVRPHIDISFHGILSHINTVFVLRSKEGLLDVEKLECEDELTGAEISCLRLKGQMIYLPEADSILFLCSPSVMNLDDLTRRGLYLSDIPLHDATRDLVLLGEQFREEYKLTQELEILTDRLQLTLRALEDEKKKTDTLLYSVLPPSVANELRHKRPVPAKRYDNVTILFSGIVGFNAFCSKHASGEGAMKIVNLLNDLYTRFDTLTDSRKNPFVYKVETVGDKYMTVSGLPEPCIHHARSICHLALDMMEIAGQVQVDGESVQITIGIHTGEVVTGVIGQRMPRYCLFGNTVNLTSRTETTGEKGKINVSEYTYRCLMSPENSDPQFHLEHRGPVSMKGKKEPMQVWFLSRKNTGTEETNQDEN
Experimental: B-2. Effect on a Recombinant Guanylate Cyclase Reporter Cell Line
The cellular activity of the compounds according to the invention is determined using a recombinant guanylate cyclase reporter cell line, as described in F. Wunder et al., Anal. Biochem. 339, 104-112 (2005).
Representative MEC values (MEC=minimum effective concentration) for the compounds of the invention are shown in Table 1 below (in some cases as mean values for individual determinations): […]

[2] = biological target: T2, human phosphodiesterase 5 (PDE 5) (Homo sapiens, UniProt O76074); assay: Inhibition of human phosphodiesterase 5 (PDE 5) (B-3); format: biochemical; conditions: PDE 5 preparation from human platelets; [8-3H] cGMP substrate, SPA; in some cases means of individual determinations
T2 construct: PDE 5 preparations are obtained from human platelets by disruption; from tissue; host or cells: human platelets (Mono Q ion exchange fractions with PDE 5 activity)
Experimental: B-3. Inhibition of Human Phosphodiesterase 5 (PDE 5)
PDE 5 preparations are obtained from human platelets by disruption (Microfluidizer®, 800 bar, 3 passes), followed by centrifugation (75 000 g, 60 min, 4° C.) and ion exchange chromatography of the supernatant on a Mono Q 10/10 column (linear sodium chloride gradient, elution with a 0.2-0.3M solution of sodium chloride in buffer (20 mM Hepes pH 7.2, 2 mM magnesium chloride). Fractions having PDE 5 activity are combined (PDE 5 preparation) and stored at −80° C.
To determine their in vitro action on human PDE 5, the test substances are dissolved in 100% DMSO and serially diluted. Typically, dilution series (1:3) from 200 μM to 0.091 μM are prepared (resulting final concentrations in the test: 4 μM to 0.0018 μM). In each case 2 μl of the diluted substance solutions are placed into the wells of microtitre plates (Isoplate-96/200 W; Perkin Elmer). Subsequently, 50 μl of a dilution of the above-described PDE 5 preparation are added. The dilution of the PDE 5 preparation is chosen such that during the later incubation less than 70% of the substrate are converted (typical dilution: 1:100; dilution buffer: 50 mM tris/hydrochloric acid pH 7.5, 8.3 mM magnesium chloride, 1.7 mM EDTA, 0.2% BSA). The substrate, [8-^3H] cyclic guanosine-3′,5′-monophosphate (1 μCi/μl; Perkin Elmer), is diluted 1:2000 with assay buffer (50 mM tris/hydrochloric acid pH 7.5, 8.3 mM magnesium chloride, 1.7 mM EDTA) to a concentration of 0.0005 μCi/μl. By addition of 50 μl (0.025 μCi) of the diluted substrate, the enzyme reaction is finally started. The test mixtures are incubated at room temperature for 60 min and the reaction is stopped by adding 25 μl of a suspension of 18 mg/ml yttrium scintillation proximity beads in water (phosphodiesterase beads for SPA assays, RPNQ 0150, Perkin Elmer). The microtitre plates are sealed with a film and left to stand at room temperature for 60 min. Subsequently, the plates are analysed for 30 s per well in a Microbeta scintillation counter (Perkin Elmer). IC50 values are determined using the graphic plot of the substance concentration against percentage PDE 5 inhibition.

Structure (SMILES) | MEC [1] [µM] | IC50 [2] [nM]
COc1ccc(CC(C)(N)CNc2nc(-c3c(C)nc4c(OCc5c(F)cccc5F)cccn34)nc3c2C(C)(C)C(=O)N3)cc1 (racemic) [Example 20, rac-4-{[2-amino-3-(4-methoxyphenyl)-2-methylpropyl]amino}-2-{8-[(2,6-difluorobenzyl)oxy]-2-methylimidazo[1,2-a]pyridin-3-yl}-5,5-dimethyl-5,7-dihydro-6H-pyrrolo[2,3-d]pyrimidin-6-one] | 3 | 110
COCC(C)(N)CNc1nc(-c2c(C)nc3c(OCc4c(F)cccc4F)cccn23)nc2c1C(C)(C)C(=O)N2 (racemic) [Example 21, rac-4-[(2-amino-3-methoxy-2-methylpropyl)amino]-2-{8-[(2,6-difluorobenzyl)oxy]-2-methylimidazo[1,2-a]pyridin-3-yl}-5,5-dimethyl-5,7-dihydro-6H-pyrrolo[2,3-d]pyrimidin-6-one] | 0.3 | 22
Cc1nc2c(OCc3c(F)cccc3F)cccn2c1-c1nc(NCC(N)C(F)(F)F)c2c(n1)NC(=O)C2(C)C (racemic) [Example 25, rac-4-[(2-amino-3,3,3-trifluoropropyl)amino]-2-{8-[(2,6-difluorobenzyl)oxy]-2-methylimidazo[1,2-a]pyridin-3-yl}-5,5-dimethyl-5,7-dihydro-6H-pyrrolo[2,3-d]pyrimidin-6-one] | 3 | 15
COCC(C)(N)CNc1nc(-c2c(C)nc3c(OCc4c(F)ccc(F)c4F)cccn23)nc2c1C(C)(C)C(=O)N2 (racemic) [Example 35, rac-4-[(2-amino-3-methoxy-2-methylpropyl)amino]-5,5-dimethyl-2-{2-methyl-8-[(2,3,6-trifluorobenzyl)oxy]imidazo[1,2-a]pyridin-3-yl}-5,7-dihydro-6H-pyrrolo[2,3-d]pyrimidin-6-one formate] | 1 | 35
Cc1nc2c(OCc3c(F)cccc3F)cccn2c1-c1nc(NCC(C)(N)C(F)(F)F)c2c(n1)NC(=O)C2(C)C (racemic) [Example 40, rac-4-[(2-Amino-3,3,3-trifluoro-2-methylpropyl)amino]-2-{8-[(2,6-difluorobenzyl)oxy]-2-methylimidazo[1,2-a]pyridin-3-yl}-5,5-dimethyl-5,7-dihydro-6H-pyrrolo[2,3-d]pyrimidin-6-one] | 3 | 14
Cc1nc2c(OCc3c(F)ccc(F)c3F)cccn2c1-c1nc2c(c(C(=O)N3CCC(CO)C3)n1)C(C)(C)C(=O)N2 (racemic) [Example 63, rac-4-{[3-(hydroxymethyl)pyrrolidin-1-yl]carbonyl}-5,5-dimethyl-2-{2-methyl-8-[(2,3,6-trifluorobenzyl)oxy]imidazo[1,2-a]pyridin-3-yl}-5,7-dihydro-6H-pyrrolo[2,3-d]pyrimidin-6-one] | 3 | 220
Cc1nc2c(OCc3c(F)cccc3F)cccn2c1-c1nc2c(c(N3C[C@H]4C[C@@]4(N)C3)n1)C(C)(C)C(=O)N2 (relative stereo) [Example 32, rac-rel-4-[(1R,5S)-1-amino-3-azabicyclo[3.1.0]hex-3-yl]-2-{8-[(2,6-difluorobenzyl)oxy]-2-methylimidazo[1,2-a]pyridin-3-yl}-5,5-dimethyl-5,7-dihydro-6H-pyrrolo[2,3-d]pyrimidin-6-one formate] | 1 | 11

Next, values leading:

MEC [1] [µM] | IC50 [2] [nM] | Structure (SMILES)
3 | 23 | Cc1nc2c(OCc3c(F)cccc3F)cccn2c1-c1nc(NCC(N)C(F)(F)C(F)F)c2c(n1)NC(=O)C2(C)C (racemic) [Example 27, rac-4-[(2-amino-3,3,4,4-tetrafluorobutyl)amino]-2-{8-[(2,6-difluorobenzyl)oxy]-2-methylimidazo[1,2-a]pyridin-3-yl}-5,5-dimethyl-5,7-dihydro-6H-pyrrolo[2,3-d]pyrimidin-6-one]
0.3 | 9.6 | Cc1nc2c(OCc3c(F)cccc3F)cccn2c1-c1nc(NCC(C)(N)C(F)F)c2c(n1)NC(=O)C2(C)C (racemic) [Example 39, rac-4-[(2-amino-3,3-difluoro-2-methylpropyl)amino]-2-{8-[(2,6-difluorobenzyl)oxy]-2-methylimidazo[1,2-a]pyridin-3-yl}-5,5-dimethyl-5,7-dihydro-6H-pyrrolo[2,3-d]pyrimidin-6-one]
0.1 | 1.7 | Cc1nc2c(OCc3c(F)cccc3F)cccn2c1-c1nc(NCC(C)(C)N)c2c(n1)NC(=O)C2(C)C(F)(F)F (racemic) [Example 41, rac-4-[(2-Amino-2-methylpropyl)amino]-2-{8-[(2,6-difluorobenzyl)oxy]-2-methylimidazo[1,2-a]pyridin-3-yl}-5-methyl-5-(trifluoromethyl)-5,7-dihydro-6H-pyrrolo[2,3-d]pyrimidin-6-one]
3 | 730 | Cc1nc2c(OCc3c(F)ccc(F)c3F)cccn2c1-c1nc2c(c(C(=O)N3CC(N)C(F)(F)C3)n1)C(C)(C)C(=O)N2 (racemic) [Example 61, rac-4-[(4-amino-3,3-difluoropyrrolidin-1-yl)carbonyl]-5,5-dimethyl-2-{2-methyl-8-[(2,3,6-trifluorobenzyl)oxy]imidazo[1,2-a]pyridin-3-yl}-5,7-dihydro-6H-pyrrolo[2,3-d]pyrimidin-6-one trifluoroacetate]
3 | 400 | Cc1nc2c(OCc3c(F)ccc(F)c3F)cccn2c1-c1nc2c(c(C(=O)N3CCC(O)C3)n1)C(C)(C)C(=O)N2 (racemic) [Example 62, rac-4-[(3-hydroxypyrrolidin-1-yl)carbonyl]-5,5-dimethyl-2-{2-methyl-8-[(2,3,6-trifluorobenzyl)oxy]imidazo[1,2-a]pyridin-3-yl}-5,7-dihydro-6H-pyrrolo[2,3-d]pyrimidin-6-one]
